Experimental data published in the METLIN SMRT retention time set (Domingo-Almenara et al. 2019).

Assay: gradient 5% acetonitrile 3 min, to 50% in 2 min, to 85% in 15 min, held 3 min, 100 µL/min
Settings: column: Zorbax Extend-C18 2.1 x 50 mm; eluents: water / acetonitrile, 0.1% formic acid
Procedure, shortened: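 A Zorbax Extend-C18 column (2.1 × 50 mm, 1.8 μm) run at 100 μL/min with water and acetonitrile, both containing 0.1% formic acid, separated mixtures of ~100 pure standards. The HPLC was coupled to a quadrupole time-of-flight mass spectrometer operated in positive and negative ionization mode, with dead and dwell volumes of 40 μL and 900 μL. Each retention time was taken from a computationally picked adduct peak that was then manually inspected.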

RP-LC retention time | Compound
880 s | Cc1ccc(NS(=O)(=O)c2cc3c(s2)CCN(C(=O)C2CC2)C3)cc1F
893 s | CC(=O)Nc1ccc(CCc2nc3ccc(C(=O)NC4CC4)cc3[nH]2)cc1
805 s | Cc1cc(N2CCN(S(=O)(=O)c3ccc(F)cc3F)CC2)nc(NC2CCCCC2)n1
745 s | COc1cccc(NC(=O)N2CCC3(CC2)NC(=O)c2ccccc2O3)c1
976 s | Cc1ccc(S(=O)(=O)N2C(=O)CCC2C(=O)Nc2cccc(C)c2C)cc1C (configuration not stated)
905 s | CCOC(=O)N1CCc2c(sc(NC(=O)C3CC3)c2-c2nc3ccccc3s2)C1
798 s | Cc1cc(-c2nnc(NC(=O)c3cnn(-c4ccccc4)c3C)o2)c(C)o1
1160 s | CCc1ccc(-c2noc(CN3C(=O)C(C)Oc4ccccc43)n2)cc1 (configuration not stated)
583 s | Cc1nc(NC(=O)c2ccccc2)n[nH]1
979 s | CN(C(=O)CN1C(=O)NC2(CCC(C(C)(C)C)CC2)C1=O)c1ccccc1 (configuration not stated)
1030 s | COc1ccc(NC(=O)Cn2cnc3c(sc4nc(-c5ccccc5)ccc43)c2=O)cc1Cl
982 s | COc1cc2c(cc1C(=O)NCCOc1ccc(Cl)cc1)OCCCO2
766 s | O=C(c1cc(F)cc(F)c1)N1CCC(n2c(-c3ccco3)nc3cccnc32)C1 (configuration not stated)
560 s | O=C(NCc1cccnc1)c1cccn1-c1nnc(N2CCOCC2)s1
714 s | CC(C)NC(=O)C1=CCN(C(=O)c2ccc(F)cc2)CC1
702 s | Cc1ccccc1CNC(=O)C1CC(=O)N(c2ccc3c(c2)CCN3C(=O)C2CC2)C1 (configuration not stated)
598 s | COc1ccc(-c2nc(NCCN3CCCCC3C)c3ccccc3n2)cc1 (configuration not stated)
896 s | CCc1nc2ccccc2c(=O)n1Cc1noc(-c2cncc(Br)c2)n1
680 s | COc1ncc(C(=O)NCc2ccccc2F)cn1
1110 s | Cc1cccc(NC(=O)Nc2nccn(-c3cccc(Cl)c3C)c2=O)c1
649 s | COc1ccc(NC(=O)N2CCN(C3=CC4=NC(C)CN4C=N3)CC2)c(C)c1 (configuration not stated)
739 s | CCOC(=O)C1CCN(C2=NS(=O)(=O)c3ccccc32)CC1
952 s | O=C(NCCCc1ccccc1)c1nc(Cn2c(=O)oc3ccccc32)no1

RP-LC retention time | Compound
624 s | CCc1ccc2[nH]c3c(c(=O)c2c1)CN(CC(=O)NCc1ccc2c(c1)OCO2)CC3
1040 s | CCNS(=O)(=O)c1cccnc1Nc1ccc(F)c(Cl)c1
798 s | COc1ccc(C2C(C(=O)Nc3ccc4c(c3)OCO4)c3cc(OC)c(OC)cc3C(=O)N2C)cc1 (configuration not stated)
730 s | CCC(C)NC(=O)C1CCCN(C(=O)Nc2ccc(NC(=O)Nc3ccccc3)cc2)C1 (configuration not stated)
734 s | CCc1ccc(Oc2nccnc2N2CCC(C(=O)N3CCN(c4ccccn4)CC3)CC2)cc1
1270 s | O=C1CC(C(=O)N2CCc3ccccc32)CN1CCc1c[nH]c2ccc(F)cc12 (configuration not stated)
658 s | CNC(=O)C1CCN(C(=O)Nc2ccc(NC(=O)Nc3ccc(C)cc3)cc2)CC1
598 s | c1cc(-c2nc(-c3ccc4c(c3)ncn4CCN3CCCCC3)no2)co1
600 s | COCCCNC(=O)CC1Sc2ncccc2N(C)C1=O (configuration not stated)
574 s | CCn1nccc1C(=O)NCCn1c(C)cnc1C1CCC1
722 s | COc1ccc(-n2nc3c(N4CCCC(C(=O)NCCc5cccs5)C4)nnc(C)c3c2C)cc1 (configuration not stated)
585 s | CC(=O)N(Cc1nn(C)c2c1CN(Cc1ccc(OCC(N)=O)cc1)CC2)c1ccccc1
738 s | CCN1CCCn2cc(S(=O)(=O)Nc3ccc(F)c(Cl)c3)cc2C1=O
599 s | Cn1nc(-c2ccccc2)cc1N
928 s | Cc1ccc(NC(=O)c2cn(C)nc2S(=O)(=O)N2CCSCC2)cc1
696 s | Cn1cc(C2c3ccccc3C(=O)N2CC(N)=O)c2ccccc21 (configuration not stated)
609 s | COc1ccc(C(F)(F)F)cc1NC(=O)C1CCCN(c2ccc(-n3ccnc3)nn2)C1 (configuration not stated)
899 s | COC(=O)c1cccc(C(=O)Nc2cccc(C)c2C)n1
1060 s | CCCn1c(=O)c2c(C(=O)NCc3ccc(Cl)cc3)cc(=O)n(CCC)c2n(C)c1=O
578 s | CCOC(=O)C1C(=O)NC(N2CCN(Cc3ccccc3)CC2)=NC1c1ccco1 (configuration not stated)
849 s | Cc1noc(-c2ccnc(-n3cnc(C(=O)NCCC(C)C)c3)c2)n1
798 s | COc1cc(NC(=O)Cn2c(=O)n(-c3ccc(F)cc3)c(=O)c3c2cc(C)n3C)cc(OC)c1
658 s | CCCN1CCN(C(=O)C2CCN(S(=O)(=O)c3ccc4c(c3)sc(=O)n4CCC)CC2)CC1

RP-LC retention time | Compound
1160 s | COc1ccccc1C(=O)N1CC(Oc2ccc(-c3nc(-c4ccccc4)no3)cc2)C1
820 s | Cc1c(C(=O)C(=O)NCc2ccc3c(c2)OCO3)c2ccccc2n1C
565 s | Cc1ccc2nc(C(=O)NCc3ccc(N(C)C)cc3)cn2c1
679 s | C=CCNC(=O)C1CCN(C(=O)Nc2ccc(NC(=O)Nc3ccccc3)cc2)CC1
564 s | CC(C)NC(=O)N1CCC(OC2CCN(Cc3ccccc3)CC2)CC1
975 s | CN(C)c1ccc(-c2nc(C3CC(=O)N(c4ccc(F)cc4)C3)no2)cc1 (configuration not stated)
749 s | CCCc1noc(-c2cccnc2N2CCCN(Cc3ccc(C)cc3)CC2)n1
602 s | CCN1CCN(c2cc(C)c3cc(NC(=O)CSc4ccccc4)ccc3n2)CC1
707 s | CC(Oc1cccc(Cl)c1)C(=O)N1CCCN(c2cc(=O)n(C)c(=O)n2C)CC1 (configuration not stated)
863 s | Cc1cc(N2CCN(c3ccccc3)CC2)n2nc(-c3cccnc3)nc2n1
839 s | CN(CCc1noc(-c2ccc(F)cc2)n1)C(=O)NCc1ccccc1
717 s | Cc1ccc(CNC(=O)C2(C)CCN(C(=O)Nc3cccc(Cl)c3C)CC2)cc1
1100 s | Cc1ccc(C(=O)Nc2cccc(OCc3nnc(-c4ccc(Cl)cc4)o3)c2)s1
778 s | CN(C[C@@H]1COCCO1)S(=O)(=O)Nc1ccc2ccc3ncc(-c4cnn(C)c4)cc3c(=O)c2c1
842 s | O=C(Nc1cnc(N2CCCCC2)nc1)c1cccs1
810 s | COC(=O)c1cccc(Nc2c(-c3ccc(OC)cc3)nc3cnccn23)c1
621 s | COC(=O)C1=C(CN2CCSCC2)NC(=O)NC1c1ccccc1Cl (configuration not stated)
915 s | O=C(O)[C@H](CC(=O)N1C[C@H]2CCCC[C@H]2C1)Cc1ccccc1
1000 s | CCCCOC(=O)CSc1nnc(-c2cc(OC)c(OC)c(OC)c2)o1
674 s | COc1ccc2c(c1)CCc1c-2n[nH]c1C(=O)O
676 s | COc1ccc(NC(=O)N2CCC(n3c(CC(C)C)nc4cccnc43)CC2)c(OC)c1
